A short description of data set [1]: Cytotoxicity test (WST-1) in HepG2 NTCP-myc cells. The settings on record: human, 7 days culture, read-out: CC50 (50% cytotoxic concentration). Format: cell-based. The protocol: HepG2 NTCP-myc cells were seeded at a concentration of 2×10^4 cells/well. 24 hours later, the compound of Example 1 was diluted to have a concentration of 0, 0.49, 0.97, 1.95, 3.90, 7.81, 15.6, 31.3, 62.5, 125, 250, 500, and 1000 nM, and added to the cells. The HepG2 NTCP-myc cells were cultured for 7 days. After the culture, 10 μl of Premix WST-1 Cell Proliferation Assay System (TaKaRa) was added, and the cells were cultured at 37° C. for 2 hours. Thereafter, absorbance was determined at 450 nm using a microplate reader.
The CC50 (50% cytotoxic concentration) was calculated from a graph showing the relationship between the concentration of the compound and cytotoxicity.

A further data set concerns HBV. Briefly: Anti-HBV activity: intracellular HBV DNA by quantitative PCR in HepG2.2.15 cells. Format: cell-based. The note with it: Hepatitis B virus, read-out: EC50 (50% effective concentration), anti-HBV activity. The protocol:
Anti-HBV activity was evaluated by quantitative PCR for determining the amount of HBV DNA in cells on the seventh day after the addition of the agent, using the HepG2.2.15 cell line of HBV-producing cells obtained by introducing a gene having a length twice that of the HBV genome into the human liver cancer cell line HepG2. For PCR of HBV DNA, a forward primer (HBV-S190F; 5′-GCT CGT OTT ACA GGC GGG-3′: SEQ ID NO: 1) and a reverse primer (HBV-S703R; 5′-GAA CCA CTG AAC AAA TOG CAC TAG TA-3′: SEQ ID NO: 2) were used. PCR was performed by carrying out a reaction at 95° C. for 10 sec, 62° C. for 10 sec, and 72° C. for 30 sec for 35 cycles.
Specifically, HepG2.2.15 cells were seeded at a concentration of 1×10^5 cells/well. 24 hours later, the compounds of Example 1 and Comparative Example 1 were diluted to have a concentration of 0, 0.49, 0.97, 1.95, 3.90, 7.81, 15.6, 31.3, 62.5, 125, 250, 500, and 1000 nM, and added to the cells. After the cells were cultured for 7 days, each cytoplasmic compartment was collected, and DNA was purified by phenol-chloroform extraction. 20 ng of the purified DNA was used to measure the amount of intracellular HBV DNA by quantitative PCR.
The EC50 (50% effective concentration) was calculated from a graph showing the relationship between the concentration of the compound and anti-HBV activity.

The mark [2] stands for this setting: 168 h, HepG2.2.15 cells, intracellular HBV DNA, day 7 after addition.

Read-outs that look alike come from different tables or passages of the source.

`COc1nc(N)nc2c1ncn2[C@@H]1O[C@H](CO)C(O)C1F` (stereo partly drawn) [Example 5, 9-(2′-deoxy-2′-fluoro-β-D-arabinofuranos-1′-yl)-2-amino-6-methoxypurine]: the CC50 at 7 days in data set [1] is greater than 500000 nM. For the same compound, the EC50 in the data set with HBV (setting [2]) was determined as 1630 nM.
Regarding `Nc1nc(Cl)c2ncn([C@@H]3O[C@H](CO)C(O)C3F)c2n1` (stereo partly drawn) [Example 1, 9-(2′-deoxy-2′-fluoro-β-D-arabinofuranos-1′-yl)-2-amino-6-chloropurine], in data set [1], the CC50 at 7 days is greater than 500000 nM. Also, in the data set with HBV (setting [2]), the EC50 stood at 11.8 nM.
Consider `OC[C@H]1O[C@@H](n2cnc3c(Cl)nc(Cl)nc32)[C@@H](F)[C@@H]1O` [Comparative Example 1, 2,6-dichloro-9-((2R,3S,4R,5R)-3-fluoro-4-hydroxy-5-(hydroxymethyl)tetrahydrofuran-2-yl)-9H-purine, reference compound], for which the EC50 in the data set with HBV (setting [2]) is greater than 10000 nM.
Regarding `N#Cc1nc(N)nc2c1ncn2[C@@H]1O[C@H](CO)C(O)C1F` (stereo partly drawn) [Example 6, 9-(2′-deoxy-2′-fluoro-β-D-arabinofuranos-1′-yl)-2-amino-6-cyanopurine], the CC50 at 7 days in data set [1] was greater than 500000 nM. Also, the EC50 in the data set on HBV (setting [2]) is 930 nM.
Take `Nc1nc(N)c2ncn([C@@H]3O[C@H](CO)C(O)C3F)c2n1` (stereo partly drawn) [Example 4, 9-(2′-deoxy-2′-fluoro-β-D-arabinofuranos-1′-yl)-2-amino-6-aminopurine]: the CC50 at 7 days in data set [1] is greater than 500000 nM. Further, in the data set on HBV (HepG2.2.15, 168 h), the EC50 stood at 2020 nM.
In the case of `Nc1nc(F)c2ncn([C@@H]3O[C@H](CO)C(O)C3F)c2n1` (stereo partly drawn) [Example 2, 9-(2′-deoxy-2′-fluoro-β-D-arabinofuranos-1′-yl)-2-amino-6-fluoropurine], the CC50 at 7 days in data set [1] stood at 337000 nM. Also, the EC50 in the data set on HBV (setting [2]) was 880 nM.
With `Nc1nc(I)c2ncn([C@@H]3O[C@H](CO)C(O)C3F)c2n1` (stereo partly drawn) [Example 3, 9-(2′-deoxy-2′-fluoro-β-D-arabinofuranos-1′-yl)-2-amino-6-], the CC50 at 7 days in data set [1] was greater than 500000 nM. Further, in the data set on HBV (setting [2]), the EC50 was found to be 990 nM.

The values are drawn from patent publication US20220033432A1, “ANTI-HEPATITIS B VIRUS AGENT” (priority 2019, published 2022).
